Key:
[1] = biological target: T1, MAGL (Mus musculus, UniProt O35678); assay: In vitro competitive activity-based protein profiling (mouse), MAGL gel band; type: biochemical; details: for inhibition at 1 µM: read-out: MAGL % inh. 1 μM
T1 construct: Proteomes (mouse brain membrane fraction or cell lysates); from tissue; host or cells: mouse brain membrane fraction (or cell lysates)
T1 sequence (O35678 1-303): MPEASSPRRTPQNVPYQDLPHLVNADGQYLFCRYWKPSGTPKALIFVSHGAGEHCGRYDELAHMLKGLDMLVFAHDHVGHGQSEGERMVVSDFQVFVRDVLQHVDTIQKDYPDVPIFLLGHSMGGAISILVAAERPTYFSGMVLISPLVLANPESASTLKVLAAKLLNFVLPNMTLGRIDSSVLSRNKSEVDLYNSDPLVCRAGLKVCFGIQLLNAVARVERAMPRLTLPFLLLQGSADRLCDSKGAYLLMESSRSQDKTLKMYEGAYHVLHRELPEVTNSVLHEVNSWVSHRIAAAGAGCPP
In short: (§1)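 Competitive ABPP: inhibitors at varying concentrations were given 30 min at 37 °C with mouse brain membranes or cell lysates (1.0 mg/mL total protein) before 30 min labelling by FP-Rh or HT-01 (stock 50 μM in DMSO). Residual hydrolase activity read as in-gel fluorescence of MAGL and FAAH bands.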

[2] = biological target: T2, FAAH (Mus musculus, UniProt O08914); assay: In vitro competitive activity-based protein profiling (mouse), FAAH gel band; type: biochemical; details: for inhibition at 1 µM: read-out: FAAH % inh. 1 μM
T2 construct: Proteomes (mouse brain membrane fraction or cell lysates); from tissue; host or cells: mouse brain membrane fraction (or cell lysates)
T2 sequence (O08914 1-579): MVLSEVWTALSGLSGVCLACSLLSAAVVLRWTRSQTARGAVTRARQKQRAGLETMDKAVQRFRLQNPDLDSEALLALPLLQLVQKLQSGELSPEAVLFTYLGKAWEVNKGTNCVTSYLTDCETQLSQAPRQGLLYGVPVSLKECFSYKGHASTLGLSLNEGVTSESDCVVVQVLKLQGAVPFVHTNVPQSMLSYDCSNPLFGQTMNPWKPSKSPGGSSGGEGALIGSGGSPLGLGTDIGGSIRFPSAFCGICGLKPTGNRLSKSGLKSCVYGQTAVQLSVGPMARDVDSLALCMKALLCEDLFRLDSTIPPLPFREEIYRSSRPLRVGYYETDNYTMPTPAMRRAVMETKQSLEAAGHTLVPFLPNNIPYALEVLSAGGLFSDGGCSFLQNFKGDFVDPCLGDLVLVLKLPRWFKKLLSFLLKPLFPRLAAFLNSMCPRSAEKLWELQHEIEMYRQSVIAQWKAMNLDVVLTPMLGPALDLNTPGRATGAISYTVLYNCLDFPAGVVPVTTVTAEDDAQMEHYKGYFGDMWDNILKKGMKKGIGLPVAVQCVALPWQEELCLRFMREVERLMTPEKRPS
In short: as §1

[3] = biological target: T3, MAGL (Homo sapiens, UniProt Q99685); assay: In vitro competitive activity-based protein profiling (human), MAGL gel band; type: biochemical
T3 construct: Proteomes (human prefrontal cortex or cell membrane fractions); from tissue; host or cells: human prefrontal cortex (or cell membrane fractions)
T3 sequence (Q99685 1-303): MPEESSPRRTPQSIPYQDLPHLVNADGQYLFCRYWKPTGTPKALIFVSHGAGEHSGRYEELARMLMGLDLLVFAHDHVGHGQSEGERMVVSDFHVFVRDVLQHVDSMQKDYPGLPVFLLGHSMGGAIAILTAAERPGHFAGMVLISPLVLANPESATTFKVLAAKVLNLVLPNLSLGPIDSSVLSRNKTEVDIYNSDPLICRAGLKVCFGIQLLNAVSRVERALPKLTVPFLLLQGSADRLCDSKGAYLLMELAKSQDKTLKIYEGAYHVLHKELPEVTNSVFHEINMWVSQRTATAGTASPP
In short: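 Human prefrontal cortex or cell membrane proteomes (1.0-2.0 mg/mL protein) preincubated with inhibitors 30 min at 37° C, then labelled with FP-Rh or JW912 probe 30 min at room temperature. Residual MAGL activity read as fluorescent gel-band intensity after SDS-PAGE.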

[4] = biological target: T1, MAGL; assay: Mouse brain proteomes from inhibitor treated mice (oral gavage, sacrificed 4 h after administration); type: in vivo; details: read-out: MAGL % inh. 5 mg/kg
In short: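 Brains were collected 4 h after oral gavage dosing of wild-type C57Bl/6J mice, vehicle polyethylene glycol. Proteomes from these brains were then analyzed for MAGL and other serine hydrolase activity.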

Row | inhibition at 1 µM [1] | inhibition at 1 µM [2] | IC50 [3] | inhibition at 5 mg/kg [4] | IC50 ([1]; mouse) | IC50 ([2]; mouse) | SMILES
1 | ≥ 75% | 0 to 25% | ≤ 100 nM | 0 to 25% |  |  | CS(=O)(=O)Nc1ccn(C(=O)N2CCN(Cc3ccc(Cl)c(N4CC5CN(S(C)(=O)=O)CC5C4)c3)CC2)n1 (stereo not drawn) [Example 217, N-(1-(4-(4-chloro-3-(5-(methylsulfonyl)hexahydropyrrolo[3,4-c]pyrrol-2(1H)-yl)benzyl)piperazine-1-carbonyl)-1H-pyrazol-3-yl) methanesulfonamide]
2 | ≥ 75% | 0 to 25% | ≤ 100 nM | 25 to 50% |  |  | CS(=O)(=O)Nc1ccn(C(=O)N2CCN(Cc3ccc(Cl)c(OC4CCOCC4)c3)CC2)n1 [Example 219, N-(1-(4-(4-chloro-3-((tetrahydro-2H-pyran-4-yl)oxy)benzyl)piperazine-1-carbonyl)-1H-pyrazol-3-yl) methanesulfonamide]
3 | ≥ 75% | 0 to 25% | ≤ 100 nM | 0 to 25% |  |  | CS(=O)(=O)Nc1ccn(C(=O)N2CCN(Cc3ccc(Cl)c(-c4nccs4)c3)CC2)n1 [Example 221, N-(1-(4-(4-chloro-3-(thiazol-2-yl)benzyl)piperazine-1-carbonyl)-1H-pyrazol-3-yl) methanesulfonamide]
4 | ≥ 75% | 0 to 25% | ≤ 100 nM | 0 to 25% |  |  | CC(=O)N1CCC2(CC1)CN(c1cc(C(F)(F)F)ccc1CN1CCN(C(=O)n3ccc(NS(C)(=O)=O)n3)CC1)C2 [Example 229, N-(1-(4-(2-(7-acetyl-2,7-diazaspiro[3.5]nonan-2-yl)-4-(trifluoromethyl)benzyl)piperazine-1-carbonyl)-1H-pyrazol-3-yl) methanesulfonamide]
5 | ≥ 75% | 0 to 25% | ≤ 100 nM | 0 to 25% |  |  | CC(=O)N1CCC2(CC1)CCN(c1cc(C(F)(F)F)ccc1CN1CCN(C(=O)n3ccc(NS(C)(=O)=O)n3)CC1)C2 [Example 232, N-(1-(4-(2-(8-acetyl-2,8-diazaspiro[4.5]decan-2-yl)-4-(trifluoromethyl)benzyl)piperazine-1-carbonyl)-1H-pyrazol-3-yl) methanesulfonamide]
6 | ≥ 75% | 0 to 25% | ≤ 100 nM | 25 to 50% |  |  | CS(=O)(=O)Nc1ccn(C(=O)N2CCN(Cc3ccc(Cl)c(-c4ccc(C(F)(F)F)nc4)c3)CC2)n1 [Example 233, N-(1-(4-(4-chloro-3-(6-(trifluoromethyl)pyridin-3-yl)benzyl)piperazine-1-carbonyl)-1H-pyrazol-3-yl) methanesulfonamide]
7 | ≥ 75% | 0 to 25% | ≤ 100 nM | 0 to 25% | ≤ 100 nM | 1000 to 10000 nM | CS(=O)(=O)Nc1ccn(C(=O)N2CCN(Cc3cccc(Cl)c3N3CC4CCC(C3)O4)CC2)n1 [Example 288, N-(1-(4-(2-(8-oxa-3-azabicyclo[3.2.1]octan-3-yl)-3-chlorobenzyl)piperazine-1-carbonyl)-1H-pyrazol-3-yl) methanesulfonamide]
8 | ≥ 75% | 0 to 25% | ≤ 100 nM | ≥ 75% |  |  | [2H]C([2H])([2H])c1cc(CN2CCCC23CCN(C(=O)n2ccc(NC(C)=O)n2)CC3)ccc1Cl [Example 294, N-(1-(1-(4-chloro-3-(methyl-d3)benzyl)-1,8-diazaspiro[4.5]decane-8-carbonyl)-1H-pyrazol-3-yl)acetamide]

Row | SMILES | inhibition at 1 µM [1] | inhibition at 1 µM [2] | IC50 [3] | inhibition at 5 mg/kg [4] | IC50 ([1]; mouse) | IC50 ([2]; mouse)
9 | CC(=O)N1CC2CCC(C1)N2c1cc(C(F)(F)F)ccc1CN1CCN(C(=O)n2ccc(NS(C)(=O)=O)n2)CC1 [Example 207, N-(1-(4-(2-(3-acetyl-3,8-diazabicyclo[3.2.1]octan-8-yl)-4-(trifluoromethyl)benzyl)piperazine-1-carbonyl)-1H-pyrazol-3-yl) methanesulfonamide] | ≥ 75% | 0 to 25% | ≤ 100 nM | 0 to 25% |  | 
10 | CS(=O)(=O)Nc1ccn(C(=O)N2CCN(Cc3ccc(C(F)(F)F)c(N4C5CCC4COC5)c3)CC2)n1 [Example 218, N-(1-(4-(3-(3-oxa-8-azabicyclo[3.2.1]octan-8-yl)-4-(trifluoromethyl)benzyl)piperazine-1-carbonyl)-1H-pyrazol-3-yl) methanesulfonamide] | ≥ 75% | 0 to 25% | ≤ 100 nM | 25 to 50% |  | 

From patent publication US10519134B2, “Pyrazole compounds and methods of making and using same” (Lundbeck La Jolla Research Center, Inc., priority 2015, dated 2019)
